Results as given in BindingDB's records for doi:10.1016/S0960-894X(97)00368-5 (1997).
pIC50: −log10 of the molar value.

Target: Human cytomegalovirus protease (assemblin)
Assay: Inhibitory concentration against human cytomegalovirus protease variant expressing a beta galactosidase reporter gene

| Structure (SMILES) | pIC50 |
| --- | --- |
| Cc1cccc2nc(NC(C)C)oc(=O)c12 [2-Isopropylamino-5-methyl-benzo[d][1,3]oxazin-4-one] | 5.40 |
| Cc1cccc2nc(N[C@H](C)c3ccc(Br)cc3)oc(=O)c12 [2-[1-(4-Bromo-phenyl)-ethylamino]-5-methyl-benzo[d][1,3]oxazin-4-one] | 6.34 |
| Cc1c(NC(=O)CN(C)C)ccc2nc(N[C@H](C)c3ccccc3)oc(=O)c12 [2-Dimethylamino-N-[5-methyl-4-oxo-2-(1-phenyl-ethylamino)-4H-benzo[d][1,3]oxazin-6-yl]-acetamide] | 5.66 |
| Cc1c(NC(=O)c2ccccn2)ccc2nc(N[C@H](C)c3ccccc3)oc(=O)c12 [Pyridine-2-carboxylic acid [5-methyl-4-oxo-2-(1-phenyl-ethylamino)-4H-benzo[d][1,3]oxazin-6-yl]-amide] | 6.14 |
| Cc1c(NC(=O)OC(C)(C)C)ccc2nc(N[C@H](C)c3ccccc3)oc(=O)c12 [[5-Methyl-4-oxo-2-(1-phenyl-ethylamino)-4H-benzo[d][1,3]oxazin-6-yl]-carbamic acid tert-butyl ester] | 5.89 |
